Target: T1, CXCR4 (C-X-C chemokine receptor type 4) (Homo sapiens, UniProt P61073)
T1 construct: purified membrane fractions of HEK293 cells overexpressing CXCR4
Experiment: […]CXCL12 radioligand displacement on CXCR4 membranes
Format: binding

T1 sequence (P61073 whole entry): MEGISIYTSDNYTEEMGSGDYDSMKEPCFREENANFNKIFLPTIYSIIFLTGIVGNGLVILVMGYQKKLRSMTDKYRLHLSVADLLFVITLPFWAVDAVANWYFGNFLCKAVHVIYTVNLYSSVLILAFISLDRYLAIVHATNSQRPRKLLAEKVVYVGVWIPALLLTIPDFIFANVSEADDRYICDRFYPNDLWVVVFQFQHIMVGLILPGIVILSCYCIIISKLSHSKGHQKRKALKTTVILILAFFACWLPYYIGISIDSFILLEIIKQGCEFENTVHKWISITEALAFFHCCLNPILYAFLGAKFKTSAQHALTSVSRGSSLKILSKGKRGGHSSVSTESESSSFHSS

SMILES: Cc1cc(NC2CCN(C(=O)CCNCC(=O)O)CC2)nc(NCc2nc(CCCNCCCNC3CCCCC3)co2)n1 [CX807]
- IC50: 65.4 ± 11.8 nM

— paper PMC7582767, “Protective Effect of CXCR4 Antagonist CX807 in a Rat Model of Hemorrhagic Stroke” (International Journal of Molecular Sciences, 2020)
